One assay deals with NCI-H226. Nature of the assay: Mesothelioma cell line proliferation assay (ATPlite), NCI-H226. It is filed as cell-based. To be noted: Homo sapiens, 144 h; NCI-H226 cells, 6 days, ATPlite cell viability. The essentials: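 Mesothelioma cells seeded at 1500 cells/well in RPMI 1640 with 10% FBS, incubated overnight, then treated with compound dose-response in DMSO for 6 days at 37° C, 5% CO2. Viability read by ATPlite luminescence; percent inhibition used to derive EC50.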

Another assay concerns H2452. The assay can be described thus: Mesothelioma cell line proliferation assay, H2452. The settings on record: Homo sapiens, NCI-H2452; H2452 cells. Format: cell-based.
In assay [1] the test system is YAP/TAZ-TEAD transcription. Nature of the assay: Reporter gene assay for measuring the inhibition of YAP/TAZ-TEAD transcription (TEAD-responsive element luciferase reporter in Hek293T cells). The settings on record: Homo sapiens, HEK-293T, 24 hours incubation. It is filed as cell-based. The essentials:
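Percent inhibition, scaled between vehicle (0%) and a positive control inhibitor (100%), came from SteadyLite luciferase signal after 24 h compound exposure at 37 °C/5% CO2. Cells: Hek293T transiently carrying a TEAD-responsive luciferase reporter; EC50 derived.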
Background: Reporter assays use an easily measured gene product as a stand-in for the process of interest.

The next assay concerns YAP. To be noted: mouse models of YAP-driven tumorigenesis; cited from earlier work.
Assay [2] relates to NF2 mutant mesothelioma cell lines. The settings on record: NF2 mutant mesothelioma cell lines (but not WT mesothelioma); cited from earlier work.

These results are taken from patent publication US12552772B2, “2-pyrazole anilines and related analogs for inhibiting YAP/TAZ-TEAD” (KATHOLIEKE UNIVERSITEIT LEUVEN, priority 2021, dated 2026).

By EC50 is commonly meant the concentration that produces a half-maximal response. A higher EC50 goes with lower potency in that assay. As for `CNS(=O)(=O)CCNc1ccc(-c2ccccc2)cc1-c1ccn(Cc2ccccc2)n1` [compound 102, 2-((3-(1-benzyl-1H-pyrazol-3-yl)-[1,1′-biphenyl]-4-yl)amino)-N-methylethane-1-sulfonamide], the EC50 in the assay on NCI-H226 is more than 10 µM; in the assay with H2452, more than 10 µM; in assay [1], less than 1 µM.

Regarding `CNS(=O)(=O)CCNc1ccc(-c2ccc(F)cc2)cc1-c1ccn(C)n1` [compound 117, 2-((4′-fluoro-3-(1-methyl-1H-pyrazol-3-yl)-[1,1′-biphenyl]-4-yl)amino)-N-methylethane-1-sulfonamide], the values for the EC50 (in the assay on NCI-H226; with H2452; in assay [1]) were more than 10 µM, more than 10 µM and less than 1 µM, respectively.

As to `CNS(=O)(=O)CCNc1ccc(-c2ccc(C(F)(F)F)cc2)cc1-c1ccn(C)n1` [compound 118, N-methyl-2-((3-(1-methyl-1H-pyrazol-3-yl)-4′-(trifluoromethyl)-[1,1′-biphenyl]-4-yl)amino)ethane-1-sulfonamide], the EC50 in the assay with NCI-H226 was 1 to 10 µM; in the assay with H2452 it was more than 10 µM; in assay [1], less than 1 µM.

Regarding `CNS(=O)(=O)CCNc1ccc(-c2cccc(F)c2)cc1-c1ccn(C)n1` [compound 119, 2-((3′-fluoro-3-(1-methyl-1H-pyrazol-3-yl)-[1,1′-biphenyl]-4-yl)amino)-N-methylethane-1-sulfonamide], the figures for the EC50 (with NCI-H226; in the assay on H2452; in assay [1]) were more than 10 µM, more than 10 µM and less than 1 µM, respectively.

On to `CNS(=O)(=O)CCNc1ccc(-c2ccc(F)c(F)c2)cc1-c1ccn(C)n1` [compound 124], for which the EC50 in the assay with NCI-H226 was 1 to 10 µM; in the assay with H2452, more than 10 µM; in assay [1], less than 1 µM.

In the case of verteporfin, the “suppression of the oncogenic activity of YAP” value in the assay on YAP was “significantly suppressed the oncogenic activity of YAP”. Also, in assay [2], the “sensitivity of YAP-TEAD transcription” value was “sensitive” and the sensitivity of viability result is “sensitive”.
